The results in this text go back to patent US5578620A, “Thiazolidine and oxazolidine derivatives, their preparation and their medical use” (Sankyo Company, Limited, priority 1994, dated 1996).

As a reminder, the inhibition in vivo is the relative decrease from the control value, in per cent. As usually defined, the IC50 is the concentration needed to halve the response being measured.

In experiment [1] the test system is blood glucose level (BGL). The experiment in a line: Hypoglycemic activity (blood glucose lowering rate) in hyperglycemic KK mice. Type of experiment: in vivo, male mice of the KK strain. The following applies: Mus musculus, oral, 18 hours. Here is the method: The test animals used were hyperglycemic male mice of the KK strain, each having a body weight more than 40 g. Each animal was orally administered a test compound in the amount shown in the following Table 8 and then allowed to feed freely for 18 hours. At the end of this time, blood was collected from the tail veins without anesthesia. The blood glucose level (BGL) was determined by means of a glucose analyzer (GL-101, manufactured by Mitsubishi Kasei Co. or Glucoroder manufactured by Shino Test Co.).
The blood glucose lowering rate was calculated by the following equation:
Blood glucose lowering rate (%)=
BGLs is the BGL in the group administered a solvent only, but no active compound; and
BGLt is the BGL in the group administered a test compound.
The results are shown in the following Table 8, in which each compound of the present invention is identified by the number of one of the following Examples in which its preparation is illustrated.

The target of experiment [2] is T1, Bovine lens aldose reductase (Bos taurus, UniProt P16116).
T1 construct: Bovine lens aldose reductase was separated and partially purified; from tissue; host or cells: bovine lens
The experiment can be described thus: Inhibition of Aldose reductase. Type of experiment: biochemical. The following applies: for inhibition at 5 µg/mL: read-out: Inhibition at 5 μg/ml. Here is the method: Bovine lens aldose reductase was separated and partially purified by the method of S. Hyman and J. H. Kinoshita [J. Biol. Chem., 240, 877 (1965)] and K. Inagaki, I. Miwa and J. Okuda [Arch. Biochem. Biophys., 316, 337 (1982)], and its activity was determined photometrically by the method of Varma et al. [Biochem. Pharmac., 25, 2505 (1976)]. […]

`CCCC(COc1ccc(CC2SC(=O)NC2=O)cc1)N1CC(COc2cccc(Cl)c2)OC1=O` (single isomer, unassigned) [Example 50 (less polar), 5-{4-[2-(5-3'-Chlorophenoxymethyl-2-oxooxazolidin-3-yl)pentyloxy]benzyl}thiazolidine-2,4-dione] showed an inhibition in vivo at 1 mg/kg in experiment [1] of 17.5%.
Still for that read-out and setting: with `CC(COc1ccc(CC2SC(=O)NC2=O)cc1)N1CC(COc2ccc(-c3ccccc3)cc2)OC1=S` (centres unmarked) [36 (polar), 5-{4-[2-(5-4'-Phenylphenoxymethyl-2-thioxooxazolidin-3-yl)propoxy]benzyl}thiazolidine-2,4-dione] the figure was 13.7%.
The same measure, in the same setting: the same measure for `CC(C)C(COc1ccc(CC2SC(=O)NC2=O)cc1)N1CC(COc2cccc(Cl)c2)OC1=O` (centres unmarked) [51 (polar), 5-{4-[2-(5-3'-Chlorophenoxymethyl-2-oxooxazolidin-3-yl)-3-methylbutoxy]benzyl}thiazolidine-2,4-dione]: 20.8%; for `O=C1NC(=O)C(Cc2ccc(OCCN3CC(COc4cccc(Cl)c4)OC3=O)cc2)S1` (centres unmarked) [Example 6, 5-{4-[2-(5-3'-Chlorophenoxymethyl-2-oxooxazolidin-3-yl)ethoxy]benzyl}thiazolidine-2,4-dione]: 19.2%.
In the case of `CC(COc1ccc(CC2SC(=O)NC2=O)cc1)NCC(O)Cc1ccccc1` (centres unmarked) [Example 7, 5-{4-[2-(3-Phenyl-2-hydroxypropylamino)propoxy]benzyl}thiazolidine-2,4-dione], the inhibition in vivo at 1 mg/kg in experiment [1] was determined as 36.3%.
For `C[C@H](COc1ccc(CC2SC(=O)NC2=O)cc1)N1C[C@@H](COc2cccc(Cl)c2)OC1=O` (stereo partly drawn) [Example 11, 5-[4-{2(R)-[5(S)-(3-Chlorophenoxymethyl)-2-oxooxazolidin-3-yl]propoxy}benzyl]thiazolidine-2,4-dione], the inhibition in vivo at 1 mg/kg in experiment [1] came to 24.3%.
In experiment [1], `C[C@@H](COc1ccc(CC2SC(=O)NC2=O)cc1)N1C[C@@H](COc2cccc(Cl)c2)OC1=O` (stereo partly drawn) [Example 13, 5-[4-{2(S)-[5(S)-(3-Chlorophenoxymethyl)-2-oxooxazolidin-3-yl]propoxy}benzyl]thiazolidine-2,4-dione] registered an inhibition in vivo at 1 mg/kg of 29.9%.
With `CC(COc1ccc(CC2SC(=O)NC2=O)cc1)NCC(O)COCc1ccccc1` (centres unmarked) [Example 15, 5-{4-[2-(3-Benzyloxy-2-hydroxypropylamino)propoxy]benzyl}thiazolidine-2,4-dione], in experiment [1], the inhibition in vivo at 1 mg/kg came to 19.1%.
In experiment [1], `CC(COc1ccc(CC2SC(=O)NC2=O)cc1)NCC(O)COCCc1ccccc1` (centres unmarked) [Example 18, 5-{4-[2'-(3-2'-phenylethoxy-2-hydroxypropylamino)propoxy]benzyl}thiozolidine-2,4-dione] showed an inhibition in vivo at 1 mg/kg of 10.5%.
Take `CC(COc1ccc(CC2SC(=O)NC2=O)cc1)N1CC(COCCc2ccccc2)OC1=O` (centres unmarked) [Example 23, 5-{4-[2-(5-2'-Phenylethoxymethyl-2-oxooxazolidin-3-yl)propoxy]benzyl}thiazolidine-2,4-dione]: in experiment [2], the concentration for half-maximal inhibition (IC50) is 3300 nM and the inhibition at 5 µg/mL stood at 70.7%.
As to `CC(COc1ccc(CC2SC(=O)NC2=O)cc1)N1CC(COCCCCCc2ccccc2)OC1=O` (centres unmarked) [Example 26, 5-{4-[2-(5-5'-Phenylpentyloxymethyl-2-oxooxazolidin-3-yl)propoxy]benzyl}thiazolidine-2,4-dione], in experiment [2], the IC50 was 1040 nM and the inhibition at 5 µg/mL amounted to 74.2%.
As for `CC(COc1ccc(CC2SC(=O)NC2=O)cc1)N1CC(COCCCCCCc2ccccc2)OC1=O` (centres unmarked) [Example 27, 5-{4-[2-(5-6'-Phenylhexyloxymethyl-2-oxooxazolidin-3-yl)propoxy]benzyl}thiazolidine-2,4-dione], in experiment [2], the IC50 was 3510 nM and the inhibition at 5 µg/mL was 54.9%.
For `CC(COc1ccc(CC2SC(=O)NC2=O)cc1)N1CC(COCCCCCCCCc2ccccc2)OC1=O` (centres unmarked) [Example 28, 5-{4-[2-(5-8'-Phenyloctyloxymethyl-2-oxooxazolidin-3-yl)propoxy]benzyl}thiazolidine-2,4-dione], the inhibition in vivo at 1 mg/kg in experiment [1] is 13.6%.
Turning to `CC(COc1ccc(CC2SC(=O)NC2=O)cc1)N1CC(COc2cccc(F)c2)OC1=O` (centres unmarked) [Example 30, 5-{4-[2-(5-3'-Fluorophenoxymethyl-2-oxooxazolidin-3-yl)propoxy]benzyl}thiazolidine-2,4-dione], in experiment [2], the midpoint of inhibition, the IC50, lay at 3790 nM and the inhibition at 5 µg/mL is 68.6%.
Take `CC(COc1ccc(CC2SC(=O)NC2=O)cc1)NCC(O)COc1cccc(N(C)C)c1` (centres unmarked) [Example 32, 5-{4-[2-(3-3'-Dimethylaminophenoxy-2-hydroxypropylamino)propoxy]benzyl}thiazolidine-2,4-dione]: in experiment [2], it took 6120 nM to reach half-maximal inhibition (IC50) and the inhibition at 5 µg/mL came to 54.6%.
As for `CC(COc1ccc(CC2SC(=O)NC2=O)cc1)N1CC(COc2cccc(N(C)C)c2)OC1=O` (centres unmarked) [Example 33, 5-{4-[2-(5-3'-Dimethylaminophenoxymethyl-2-oxooxazolidin-3-yl)propoxy]benzyl}thiazolidine-2,4-dione], in experiment [2], half-maximal inhibition (IC50) was put at 641 nM and the inhibition at 5 µg/mL is 85.5%.
With `CC(COc1ccc(CC2SC(=O)NC2=O)cc1)NCC(O)COc1ccc(-c2ccccc2)cc1` (centres unmarked) [Example 34, 5-{4-[2-(3-4'-Phenylphenoxy-2-hydroxypropylamino)propoxy]benzyl}thiazolidine-2,4-dione], in experiment [2], inhibition was half-maximal at 3750 nM (IC50) and the inhibition at 5 µg/mL came out at 62%.
On to `CC(COc1ccc(CC2SC(=O)NC2=O)cc1)NCC(O)CSc1ccccc1` (centres unmarked) [Example 37, 5-{4-[2-(3-Phenylthio-2-hydroxypropylamino)propoxy]benzyl}thiazolidine-2,4-dione], for which, in experiment [2], the half-inhibitory concentration (IC50) was 8730 nM and the inhibition at 5 µg/mL was 55.2%.
As to `CC(COc1ccc(CC2SC(=O)NC2=O)cc1)N1CC(CSc2ccccc2)OC1=O` (centres unmarked) [Example 38, 5-{4-[2-(5-Phenylthiomethyl-2-oxooxazolidin-3-yl)propoxy]benzyl}thiazolidine-2,4-dione], in experiment [2], the IC50 is 1500 nM and the inhibition at 5 µg/mL is 80.1%.
For the compound `CC(COc1ccc(CC2SC(=O)NC2=O)cc1)N1CC(CN(C)c2ccccc2)OC1=O` (centres unmarked) [Example 40, 5-[4-{2-[5-(N-Methyl-N-phenylaminomethyl)-2-oxooxazolidin-3-yl]propoxy}benzyl]thiazolidine-2,4-dione], in experiment [2], the IC50 was 1850 nM and the inhibition at 5 µg/mL was found to be 80.9%.
On to `CC(COc1ccc(CC2SC(=O)NC2=O)cc1)N1CC(COCc2cccc(Cl)c2)OC1=O` (centres unmarked) [Example 42, 5-{4-[2-(5-3'-Chlorobenzyloxymethyl-2-oxooxazolidin-3-yl)propoxy]benzyl}thiazolidine-2,4-dione], for which, in experiment [2], it took 1880 nM to reach half-maximal inhibition (IC50) and the inhibition at 5 µg/mL was 74%.
On the same counts, the results for `CC(COc1ccc(CC2SC(=O)NC2=O)cc1)N1CC(COCc2cccc(Cl)c2)OC1=S` (centres unmarked) [Example 43, 5-{4-[2-(5-3'-Chlorobenzyloxymethyl-2-thioxooxazolidin-3-yl)propoxy]benzyl}thiazolidine-2,4-dione] are 1170 nM and 65.9%.
As to `CCC(COc1ccc(CC2SC(=O)NC2=O)cc1)NCC(O)COc1cccc(Cl)c1` (centres unmarked) [Example 46, 5-{4-[2-(3-3'-Chlorophenoxy-2-hydroxypropylamino)butoxy]benzyl}thiazolidine-2,4-dione], in experiment [2], the IC50 was 6050 nM and the inhibition at 5 µg/mL came to 61%.
For `CC(COc1ccc(CC2SC(=O)NC2=O)cc1)N1CC(COc2ccccc2)OC1=S` (centres unmarked) [Example 49, 5-{4-[2-(5-Phenoxymethyl-2-thioxooxaolidin-3-yl)propoxy]benzyl}thiazolidine-2,4-dione], in experiment [2], half-maximal inhibition (IC50) was put at 1040 nM and the inhibition at 5 µg/mL was 77.8%.
In the case of `CCCC(COc1ccc(CC2SC(=O)NC2=O)cc1)N1CC(COc2cccc(Cl)c2)OC1=O` (centres unmarked) [Example 50, 5-{4-[2-(5-3'-Chlorophenoxymethyl-2-oxooxazolidin-3-yl)pentyloxy]benzyl}thiazolidine-2,4-dione], the half-inhibitory concentration (IC50) in experiment [2] is 617 nM.
For the compound `CC(C)(COc1ccc(CC2SC(=O)NC2=O)cc1)N1CC(COc2cccc(Cl)c2)OC1=O` (centres unmarked) [Example 52, 5-{4-[2-(5,3'-Chlorophenoxymethyl-2-oxooxazolidin-3-yl)-2-methylpropoxy]benzyl}thiazolidine-2,4-dione], in experiment [2], the midpoint of inhibition, the IC50, lay at 1860 nM and the inhibition at 5 µg/mL came out at 72.8%.
As for `O=C1NC(=O)C(Cc2ccc(OCCCN3CC(COc4ccccc4)OC3=O)cc2)S1` (centres unmarked) [Example 53, 5-{4-[3-(5-Phenoxymethyl-2-oxooxazolidin-3-yl)propoxy]benzyl}thiazolidine-2,4-dione], in experiment [2], the IC50 was 2410 nM and the inhibition at 5 µg/mL was 77.6%.
In the case of `O=C1NC(=O)C(Cc2ccc(OCCCCN3CC(COc4cccc(Cl)c4)OC3=O)cc2)S1` (centres unmarked) [Example 54, 5-{4-[4-(5-3'-Chlorophenoxymethyl-2-oxooxazolidin-3-yl)butoxy]benzyl}thiazolidine-2,4-dione], in experiment [2], the IC50 is 1980 nM and the inhibition at 5 µg/mL was found to be 69.1%.
As for `CC(COc1ccc(CC2SC(=O)NC2=O)cc1)N1CCOC(COc2cccc(Cl)c2)C1` (centres unmarked) [Example 55, 5-{4-[2-(2-3'-Chlorophenoxymethylmorpholino)propoxy]benzyl}thiazolidine-2,4-dione], in experiment [2], the IC50 is 2850 nM and the inhibition at 5 µg/mL turned out to be 62.7%.
